What follows are molecules tested against T1, Carbonic anhydrase (Candida albicans (strain SC5314 / ATCC MYA-2876) (Yeast), UniProt Q5AJ71).
T1 sequence (Q5AJ71 whole entry): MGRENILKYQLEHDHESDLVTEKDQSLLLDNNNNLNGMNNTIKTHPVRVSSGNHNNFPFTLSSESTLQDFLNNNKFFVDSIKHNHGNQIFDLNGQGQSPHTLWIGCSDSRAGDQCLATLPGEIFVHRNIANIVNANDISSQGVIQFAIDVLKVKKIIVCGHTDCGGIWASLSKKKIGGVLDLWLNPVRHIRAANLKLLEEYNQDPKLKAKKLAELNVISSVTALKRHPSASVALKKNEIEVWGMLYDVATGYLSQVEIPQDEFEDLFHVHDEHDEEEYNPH
`Nc1ccc(S(=O)(=O)NCc2ccc(S(N)(=O)=O)cc2)cc1` showed a Ki of 1.31 µM.
With `Nc1cc(Cl)c(S(N)(=O)=O)cc1S(N)(=O)=O` the Ki was 0.874 µM.
With `Nc1ccc(S(=O)(=O)Nc2nnc(S(N)(=O)=O)s2)cc1` the Ki was 1.09 µM.
`NS(=O)(=O)c1nnc(-c2ccccc2Cl)s1` gave a Ki of 1.29 µM.
`Nc1nccc(Nc2ccc(S(N)(=O)=O)cc2)n1` showed a Ki of 1.11 µM.
`Nc1ccc(S(N)(=O)=O)cc1Br` gave a Ki of 0.408 µM.
`Cn1nc(S(N)(=O)=O)sc1=N` gave a Ki of 1.37 µM.
Work on `NS(=O)(=O)c1ccc(CCO)cc1` yielded a Ki of 1.21 µM.
With `Nc1ccc(S(N)(=O)=O)cc1F` the Ki was 1.24 µM.
`NS(=O)(=O)c1ccc(CO)cc1` was tested, and the Ki was 0.383 µM.
Work on `NCCc1ccc(S(N)(=O)=O)cc1` yielded a Ki of 3.2 µM.
`Nc1ccc(S(N)(=O)=O)cc1Cl` gave a Ki of 1.34 µM.
With `Nc1ccc(S(=O)(=O)NCCc2ccc(S(N)(=O)=O)cc2)cc1` the Ki was 0.727 µM.
`Nc1cc(C(F)(F)F)c(S(N)(=O)=O)cc1S(N)(=O)=O` [2,4-DISULFAMYLTRIFLUOROMETHYLANILINE] was tested, and the Ki was 6.11 µM.
`NS(=O)(=O)c1nnc(NS(=O)(=O)c2ccccc2)s1` [BENZOLAMIDE] gave a Ki of 1.51 µM.
`CCN[C@H]1CN(CCCOC)S(=O)(=O)c2sc(S(N)(=O)=O)cc21` [BRINZOLAMIDE] was tested, and the Ki was 1.1 µM.
Molecule `NS(=O)(=O)c1ccc(C(=O)O)cc1` [CARZENIDE] has a Ki of 0.861 µM.
Work on `Cc1ccc(-c2cc(C(F)(F)F)nn2-c2ccc(S(N)(=O)=O)cc2)cc1` [CELECOXIB] yielded a Ki of 1.02 µM.
`NCc1ccc(S(N)(=O)=O)cc1` [MAFENIDE] was tested, and the Ki was 1.11 µM.
Molecule `O=C1NS(=O)(=O)c2ccccc21` [SACCHARIN] has a Ki of 0.736 µM.
With `Nc1ccc(S(N)(=O)=O)cc1` [SULFANILAMIDE] the Ki was 7.63 µM.
For `CC1(C)O[C@@H]2[C@@H](CO[C@@]3(COS(N)(=O)=O)OC(C)(C)O[C@@H]23)O1` [TOPIRAMATE], the Ki was 1.11 µM.

Source: ChEMBL document CHEMBL1152937, “Carbonic anhydrase inhibitors. Inhibition and homology modeling studies of the fungal beta-carbonic anhydrase from Candida albicans with sulfonamides” (Bioorg Med Chem, 2009)
